From ChEMBL document CHEMBL1139017, “Synthesis and biological activity of (+)-hedychilactone A and its analogs from (+)-sclareolide” (Bioorg Med Chem Lett, 2006)
In brackets after ≈: the same amount, converted by molar mass.

Experiments:
U-87 MG = experiment: Cytotoxicity against U87 cancer cell line; format: functional, cell-based, U-87MG ATCC; details: Homo sapiens
U373 MG = experiment: Cytotoxicity against U373 cancer cell line; format: functional, cell-based, U-373MG ATCC; details: Homo sapiens
SiHa = experiment: Cytotoxicity against SiHa cancer cell line; format: functional, cell-based; details: Homo sapiens
SK-OV-3 = experiment: Cytotoxicity against sk-ov-3 cancer cell line; format: functional, cell-based; details: Homo sapiens
B16 = experiment: Cytotoxicity against B16 cancer cell line; format: functional, cell-based; details: Mus musculus
HUVEC [1] = experiment: Antiangiogenic activity against HUVEC cells; format: functional, cell-based; details: Homo sapiens
HUVEC [2] = experiment: Inhibition of NO production in HUVEC cells; format: functional, cell-based; details: Homo sapiens

Row | Structure (SMILES) | IC50 (U-87 MG) [µg/mL] | IC50 (U373 MG) [µg/mL] | IC50 (SiHa) [µg/mL] | IC50 (SK-OV-3) [µg/mL] | IC50 (B16) [µg/mL] | IC50 (HUVEC [1]) [µg/mL] | IC50 (HUVEC [2]) [µg/mL]
1 | C=C1CC[C@H]2C(C)(C)CCC[C@]2(C)[C@H]1C/C=C1/CCOC1=O | > 50 | 40.4 (≈ 134 µM) | > 50 | 4.3 (≈ 14.2 µM) | 17.6 (≈ 58.2 µM) | 2.2 (≈ 7.27 µM) | 4.5 (≈ 14.9 µM)
2 | CC1=CC[C@H]2C(C)(C)CCC[C@]2(C)[C@H]1C/C=C1\CCOC1=O | 9.2 (≈ 30.4 µM) | 4.7 (≈ 15.5 µM) | 17 (≈ 56.2 µM) | 6 (≈ 19.8 µM) | 9.1 (≈ 30.1 µM) | 2.6 (≈ 8.6 µM) | 18 (≈ 59.5 µM)
3 | C=C1C(=O)C[C@H]2C(C)(C)CCC[C@]2(C)[C@H]1C/C=C1\CCOC1=O | 1.7 (≈ 5.37 µM) | 3.7 (≈ 11.7 µM) | 7 (≈ 22.1 µM) | 0.9 (≈ 2.84 µM) | 3.4 (≈ 10.7 µM) | 1.2 (≈ 3.79 µM) | 0.7 (≈ 2.21 µM)
4 | CC1=CC[C@H]2C(C)(C)CCC[C@]2(C)[C@H]1CC=O | 11.7 (≈ 49.9 µM) | 20.6 (≈ 87.9 µM) | 20.9 (≈ 89.2 µM) | 23.5 (≈ 100 µM) | 21.8 (≈ 93 µM) | 4.8 (≈ 20.5 µM) | 6 (≈ 25.6 µM)
5 | C=C1[C@H](O)C[C@H]2C(C)(C)CCC[C@]2(C)[C@H]1C/C=C1/CCOC1=O | > 50 | > 50 | > 50 | 10.1 (≈ 31.7 µM) | > 50 | 12.4 (≈ 38.9 µM) | 8 (≈ 25.1 µM)
6 | C=C1CC[C@H]2C(C)(C)CCC[C@]2(C)[C@H]1CC=O | 4.1 (≈ 17.5 µM) | 7 (≈ 29.9 µM) | 14.5 (≈ 61.9 µM) | 3.1 (≈ 13.2 µM) | 4 (≈ 17.1 µM) | 2.9 (≈ 12.4 µM) | > 25
7 | C=C1CC[C@H]2C(C)(C)CCC[C@]2(C)[C@H]1C/C=C1\CCOC1=O | 5 (≈ 16.5 µM) | 15.1 (≈ 49.9 µM) | 20.2 (≈ 66.8 µM) | 2 (≈ 6.61 µM) | 17.6 (≈ 58.2 µM) | 1.7 (≈ 5.62 µM) | 5 (≈ 16.5 µM)
8 | CC1=CC[C@H]2C(C)(C)CCC[C@]2(C)[C@H]1C/C=C1/CCOC1=O | > 50 | > 50 | > 50 | > 50 | > 50 | 4.3 (≈ 14.2 µM) | > 25
9 | C=C1[C@H](O)C[C@H]2C(C)(C)CCC[C@]2(C)[C@H]1C/C=C1\CCOC1=O | 12.7 (≈ 39.9 µM) | 14.9 (≈ 46.8 µM) | 32 (≈ 100 µM) | 12.4 (≈ 38.9 µM) | 16.7 (≈ 52.4 µM) | 6.9 (≈ 21.7 µM) | 13.2 (≈ 41.4 µM)
10 | C=C1C(=O)C[C@H]2C(C)(C)CCC[C@]2(C)[C@H]1C/C=C1/CCOC1=O | 1.43 (≈ 4.52 µM) | 0.6 (≈ 1.9 µM) | 3.4 (≈ 10.7 µM) | 0.8 (≈ 2.53 µM) | 1.5 (≈ 4.74 µM) | 0.6 (≈ 1.9 µM) | 0.9 (≈ 2.84 µM)
11 | C=C1[C@@H](O)C[C@H]2C(C)(C)CCC[C@]2(C)[C@H]1C/C=C1/CCOC1=O | > 50 | 15.7 (≈ 49.3 µM) | 31.7 (≈ 99.5 µM) | 5.3 (≈ 16.6 µM) | > 50 | 13.8 (≈ 43.3 µM) | 11.2 (≈ 35.2 µM)
12 | C=C1[C@@H](O)C[C@H]2C(C)(C)CCC[C@]2(C)[C@H]1C/C=C1\CCOC1=O [HEDYCHILACTONE A] | 36.8 (≈ 116 µM) | > 50 | > 50 | 8.7 (≈ 27.3 µM) | > 50 | 12.6 (≈ 39.6 µM) | 11 (≈ 34.5 µM)
13 | CC(=O)O[C@H]1C(=O)[C@@]2(C)[C@H]([C@H](OC(=O)c3ccccc3)[C@]3(O)C[C@H](OC(=O)[C@H](O)[C@@H](NC(=O)c4ccccc4)c4ccccc4)C(C)=C1C3(C)C)[C@]1(OC(C)=O)CO[C@@H]1C[C@@H]2O [PACLITAXEL] | 3.2 (≈ 3.75 µM) |  | 1.3 (≈ 1.52 µM) | 8.7 (≈ 10.2 µM) | < 0.1 | 0.3 (≈ 0.351 µM) | 
